We go through 13 compounds from US20060183921A1, “Pharmaceutically active compounds and methods of use” (priority 2001, published 2006).

In series [1] the target is T1, human recombinant A1-adenosine receptors (Homo sapiens, UniProt P30542).
T1 construct: expressed in transfected cells; host or cells: CHO (Chinese hamster ovary) cells, CHO:huA1, under G-418 selection
T1 sequence (P30542 1-326): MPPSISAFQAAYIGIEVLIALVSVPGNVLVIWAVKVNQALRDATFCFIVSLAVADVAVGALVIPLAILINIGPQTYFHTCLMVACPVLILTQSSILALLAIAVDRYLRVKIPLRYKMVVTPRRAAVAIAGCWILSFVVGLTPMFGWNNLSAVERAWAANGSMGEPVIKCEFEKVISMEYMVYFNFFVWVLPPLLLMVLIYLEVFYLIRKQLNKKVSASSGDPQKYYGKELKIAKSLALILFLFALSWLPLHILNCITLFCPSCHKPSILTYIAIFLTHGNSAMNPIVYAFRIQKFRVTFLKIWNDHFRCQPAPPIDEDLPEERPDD
The series is described as follows: Measurement of cAMP enhancement in CHO cells (allosteric enhancement, cAMP content by radioimmunoassay). It counts as cell-based. To be noted: CHO:huA1 cells, forskolin 1 μM, rolipram 20 μM, CPA 0.01 nM, 6 min at 36° C., control 100%. The procedure:
Chinese hamster ovary cells expressing human recombinant A1-adenosine receptors (CHO:huA1 cells) at a density of approximately 8000 fmol/mg protein were prepared as previously described (Kollias-Baker et al., (1997), J. Pharmacol. Exp. Ther. 281: 761-768) and aliquots of the cells at low passage numbers were frozen and stored in liquid nitrogen. When compounds were tested, an aliquot of CHO:huA1 cells were rapidly thawed after removal from liquid nitrogen, then grown in Ham's F12 culture medium with 10% fetal bovine serum and 0.5 mg/mL of antibiotic G-418 (Shryock, Ozeck, and Belardinelli (1998), Mol. Pharmacol. 53: 886-893). Cells were passaged thrice weekly. Aliquots of cells were placed into 12-well plates with culture medium, serum, and antibiotic for 48 hours, by which time the cells had grown to a confluent monolayer.
Allosteric enhancement was measured as the action of a test compound at different concentrations (0.01, 0.1, 1 and 10 μM) to reduce the cAMP content of CHO:huA1 cells. To initiate an experiment, growth medium was removed from the 12-well plates and cells were washed once with warm Hanks' buffered saline. The wash solution was then removed and replaced with fresh Hanks' solution containing forskolin (1 μM), rolipram (20 μM), N^6-cyclopentyladenosine (CPA, 0.01 nM), adenosine deaminase (2 U/mL), and the test compound. Forskolin was used to stimulate the activity of adenylyl cyclase, rolipram to inhibit cAMP phosphodiesterase, adenosine deaminase to degrade endogenous adenosine, and CPA to cause a small increase of the number of activated adenosine receptors. After 6 min of incubation at 36° C. in the presence of test compound, the incubation solution was removed and hydrochloric acid (final concentration 50 mM) was added to terminate drug action. The content of cAMP in acidified extracts of cells was determined by radioimmunoassay as previously described (Kollias-Baker et al., (1997), J. Pharmacol. Exp. Ther. 281: 761-768). Because the magnitude of the effects of allosteric enhancers on CHO:huA1 cells changed subtly with passage number and differed slightly among different aliquots of cells, the actions of the test compounds and the action of a reference compound (PD 81,723) were assessed in each experiment. The effect of each test compound on cAMP content is presented in the accompanying table as a percentage of the value of cAMP content in the absence of drug (control, 100%). Each value is a mean±standard error of 6 determinations in each of the number of experiments indicated in the “n” column of the table.

For `Cc1cccc2c1C(=O)c1c-2csc1N` [Example 2, 1-Amino-7-methyl-2-thia-cyclopenta[a]inden-8-one], the melting point was in the range of 196 to 198 °C.

For `Cc1ccc2c(c1)-c1csc(N)c1C2=O` [Example 3, 1-Amino-5-methyl-2-thia-cyclopenta[a]inden-8-one], the melting point fell in the range of 157 to 159 °C.

`Nc1scc2c1C(=O)c1c(Cl)cccc1-2` [Example 4, 1-Amino-7-chloro-2-thia-cyclopenta[a]inden-8-one] showed a melting point of 183 to 185 °C.

`Nc1scc2c1C(=O)c1ccc(Cl)cc1-2` [Example 5, 1-Amino-5-chloro-2-thia-cyclopenta[a]inden-8-one] gave a melting point of 201 to 202 °C.

The compound `Nc1scc2c1C(=O)c1c-2ccc(Cl)c1Cl` [Example 6, 1-Amino-6,7-dichloro-2-thia-cyclopenta[a]inden-8-one] registered a melting point of 254 to 255 °C.

Turning to `Nc1scc2c1C(=O)c1cc(Br)ccc1-2` [Example 21, 1-Amino-6-bromo-2-thia-cyclopenta[a]inden-8-one], the “Change in cAMP Content from Control (Mean ± SEM)” value (from here on “Change … (Mean ± SEM)”) in series [1] (0.01 μM test compound) is reported as −5 ± 4%; in series [1] (0.1 μM test compound), −15 ± 2%; in series [1] (1 μM test compound), 4 ± 5%; in series [1] (10 μM test compound), −16 ± 3%.

For `Nc1scc2c1C(O)c1ccc(Cl)cc1-2` (stereo not shown) [Example 22, 1-Amino-5-chloro-8-hydroxy-2-thia-cyclopenta[a]indene], the “Change … (Mean ± SEM)” value is reported as 4 ± 2% in series [1] (0.01 μM test compound), −1 ± 8% in series [1] (0.1 μM test compound), 0 ± 7% in series [1] (1 μM test compound) and −17 ± 2% in series [1] (10 μM test compound).

For `CC(=O)Nc1scc2c1C(=O)c1ccc(Cl)cc1-2` [Example 23, 1-Acetylamino-5-chloro-2-thia-cyclopenta[a]inden-8-one], the “Change … (Mean ± SEM)” value in series [1] (0.01 μM test compound) was −7 ± 2%; in series [1] (0.1 μM test compound), 9 ± 9%; in series [1] (1 μM test compound) it was −16 ± 3%; in series [1] (10 μM test compound), −42 ± 1%.

Consider `Nc1ccc2c(c1)C(=O)c1c-2csc1N` [Example 24, 1,6-Diamino-2-thia-cyclopenta[a]inden-8-one], for which the “Change … (Mean ± SEM)” value in series [1] (0.01 μM test compound) was 5 ± 3%; in series [1] (0.1 μM test compound), 5 ± 3%; in series [1] (1 μM test compound) it was −1 ± 1%; in series [1] (10 μM test compound), −23 ± 6%.

With `Nc1scc2c1C(=O)c1ccc(Cl)c(Cl)c1-2` [Example 25, 1-Amino-4,5-dichloro-2-thia-cyclopenta[a]inden-8-one], the “Change … (Mean ± SEM)” value in series [1] (0.01 μM test compound) is 0 ± 5%; in series [1] (0.1 μM test compound) it was −9 ± 8%; in series [1] (1 μM test compound), −46 ± 2%; in series [1] (10 μM test compound), −75 ± 3%.

Turning to `Nc1sc2c3c1C(=O)c1ccc(Cl)cc1C3CN(Cc1ccccc1)C2` (stereo not shown) [Example 26, 5-Amino-2-benzyl-9-chloro-1,2,3,10b-tetrahydro-6H-benzo[h]thieno[2,3,4-de]isoquinolin-6-one], the “Change … (Mean ± SEM)” value is reported as −4 ± 1% in series [1] (0.01 μM test compound), −1 ± 7% in series [1] (0.1 μM test compound), 15 ± 6% in series [1] (1 μM test compound) and 25 ± 7% in series [1] (10 μM test compound).

As to `Nc1scc2c1C(=O)c1c(Cl)cccc1C21SCCCS1` [Example 27, 3-Amino-5-chloro-9-spiro(1,3-dithian-2-yl)-9H-naphtho[2,3-c]thiophene-4-one], the “Change … (Mean ± SEM)” value was 6 ± 3% in series [1] (0.01 μM test compound), 8 ± 5% in series [1] (0.1 μM test compound), 8 ± 9% in series [1] (1 μM test compound) and 0 ± 9% in series [1] (10 μM test compound).

As for `Cc1sc(N)c(C(=O)c2cccc(C(F)(F)F)c2)c1C` [PD 81,72, reference compound], the “Change … (Mean ± SEM)” value in series [1] (0.01 μM test compound) was 4 ± 2%; in series [1] (0.1 μM test compound), 8 ± 3%; in series [1] (1 μM test compound), −32 ± 2%; in series [1] (10 μM test compound), −75 ± 1%.
